{
  "source": "patent US10822367B2",
  "about": "“Pharmaceutical composition for preventing or treating dementia and improving cognitive function, comprising glasswort extract” (priority 2017, dated 2020)",
  "key": {"[1]": {"test_system": "forgetfulness animal models using scopolamine", "experiment": "Y-maze test", "assay_type": "in vivo", "method": "A test was conducted to investigate the improvement efficacy of cognitive ability and memory of the desalted Salicornia europaea extract (PM-EE) obtained in example 4-1 above and acanthoside B as an AChE inhibitory and neuroinflammation inhibiting substance isolated from PM-EE in examples 4-2 and 4-3. The Y-maze test was conducted in forgetfulness animal models using scopolamine. In the present test, PM-EE and acanthoside B were dissolved in 10% Tween 80, and then the mixture was orally administered at different concentrations (PM-EE and acanthoside B). […] For the Y-maze test, a test animal was carefully placed in a test apparatus composed of three arms (A, B, C) of a black polyvinyl plastic, each of the arms being 50 cm in length, 10 cm in width, and 20 cm in height, and the folding angle of the three arms being 120 degrees, and the test animal was allowed to freely move for 8 minutes, and then the number of arm entries was recorded. If the test animal sequentially entered the three different arms, 1 point (actual alternation) was given. The alternation behavior was calculated by the following formula. Alternation behavior=(actual alternation)/(maximum alternation)×100 (maximum alternation: the total number of arm entries−2)"}, "[2]": {"target": "acetylcholine esterase (AChE) (Homo sapiens, UniProt P22303)", "sequence (P22303 32-614)": "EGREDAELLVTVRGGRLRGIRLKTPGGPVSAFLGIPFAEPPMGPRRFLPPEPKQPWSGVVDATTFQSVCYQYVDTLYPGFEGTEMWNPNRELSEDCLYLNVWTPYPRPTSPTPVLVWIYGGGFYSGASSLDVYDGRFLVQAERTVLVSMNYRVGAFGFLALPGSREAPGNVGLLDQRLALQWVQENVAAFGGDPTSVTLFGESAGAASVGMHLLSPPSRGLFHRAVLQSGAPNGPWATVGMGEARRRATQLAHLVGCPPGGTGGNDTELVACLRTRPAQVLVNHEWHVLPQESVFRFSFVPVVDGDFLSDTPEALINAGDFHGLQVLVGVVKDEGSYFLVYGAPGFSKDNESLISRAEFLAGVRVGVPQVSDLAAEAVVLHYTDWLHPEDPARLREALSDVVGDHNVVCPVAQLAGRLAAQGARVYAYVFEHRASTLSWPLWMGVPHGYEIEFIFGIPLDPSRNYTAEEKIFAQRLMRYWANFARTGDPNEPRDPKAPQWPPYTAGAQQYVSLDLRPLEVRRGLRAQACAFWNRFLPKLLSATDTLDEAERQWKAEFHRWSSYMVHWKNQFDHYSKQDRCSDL", "experiment": "Acetylcholine esterase inhibitory activity (partially corrected Ellman's coupled enzyme assay)", "assay_type": "biochemical", "source_text": "It has been reported that as the concentration of acetylcholine esterase (AChE) increases in the cerebral blood vessels, cholinergic neurotransmitters for neurons are deficient in neurons, causing memory and cognitive impairment. Therefore, the measurement of AChE inhibitory activity can be used as a tool for the development of a drug or health functional raw material for prevention and treatment of dementia or enhancement of cognitive ability. In the present invention, the AChE inhibitory activity of a desalted Salicornia europaea extract, a desalted Salicornia europaea enzymatic hydrolysis extract, or purified fractions obtained from a desalted Salicornia europaea extract were measured, and the measurement was conducted by partially correcting Ellman's coupled enzyme assay. That is, 170 μL of 100 mM phosphate buffer (pH 8), […] of 2 mM dithiobisnitrobenzoic acid (DTNB), and 20 μL of an extraction sample were added to on a 96-well microplate. […] The enzymatic reaction solution was incubated at 37° C. for 10 minutes, and then the absorbance was measured by a UV-VIS microreader at 410 nm. The AChE inhibitory activity was calculated as below by comparison between the absorbance (Ac) of a control group not containing a substrate and a sample and the absorbance (As) of a test group. *AChE inhibitory activity (%)=[1−(As/Ac)]×100 • Ac: absorbance of a control group, • As: absorbance of a sample group."}, "[3]": {"test_system": "LPS-stimulated mouse BV-2 microglia", "experiment": "LPS-induced nitric oxide (NO) production, NO assay using Griess reagent", "assay_type": "cell-based", "details": "1, 5, 100 μg/mL as printed; LPS 200 ng/ml (FIG. 10b)", "experimental": "(§1) A test was conducted to investigate effects of the neuroinflammation inducing substance LPS (200 mg/mL) and the active ingredient acanthoside B of PM-EE on brain glia cells in LPS-stimulated brain glia cells BV2 microglia. The cells were treated with each material at different concentrations (1, 5, 10 μg/mL), and a cytotoxicity test was conducted through MTT analysis. […] Therefore, in order to analyze the neuroinflammation inhibitory ability of acanthoside B at concentrations (1, 5, 100 μg/mL) without cytotoxicity, as for whether the nitric oxide (NO) produced in LPS (200 ng/ml)-stimulated mouse BV-2 microglia was inhibited by acanthoside B, the content of intracellular LPS-induced nitric oxide (NO) was measured through NO assay using Griess reagent."}, "[4]": {"test_system": "iNOS and COX-2 protein in LPS-stimulated BV2 microglia", "experiment": "Neuroinflammation factor protein expression by western blotting", "assay_type": "cell-based, mouse", "details": "acanthoside B; LPS-induced (FIG. 10c)", "experimental": "as §1"}, "[5]": {"test_system": "neuroinflammation-related genes (IL-1β, iNOS, COX-2, and TNF-α) in BV2 microglia", "experiment": "Neuroinflammation gene expression by RT-PCR", "assay_type": "cell-based, mouse", "method": "BV2 microglia as neuroglia were treated with LPS and the desalted Salicornia europaea extract (PM-EE) at different concentrations (0-100 μg/mL). After 1 hour, cells were stimulated by LPS, and after 3 hours, an RNA sample was isolated by an RNA extraction buffer. Thereafter, RT-PCR assay was conducted through RNA purification procedure. […] RNA isolated from BV2 microglia was subjected to denaturation at 95° C. for […], 45 times of chain reactions in conditions of 95° C. for 5 seconds and 60° C. for 20 seconds, and annealing to 95° C. at 0.2° C./15 sec, using the primers in Table 4, and then the reaction was stopped. Last, separation by bp size was conducted through agarose gel electrophoresis. Then, bands were checked under UV, and fluorescence was imaged by a camera. As shown in the results in FIG. 9, the expressions of neuroinflammation-related genes (IL-1β, iNOS, COX-2, and TNF-α) were not or slightly observed in a control group treated without LPS.\nA test was conducted to investigate an effect of acanthoside B on neuroinflammation factor gene expression. […] After 3 hours, RNA sample was separated by RNA extraction buffer to synthesize cDNA, and RT-PCR was conducted by the same method as in example 6 using the primers in Table 4. […]"}, "[6]": {"test_system": "forgetfulness animal models using scopolamine", "experiment": "Passive avoidance test", "assay_type": "in vivo, mice", "method": "Mice were placed in the bright section with shining light and allowed to go over for 20 seconds. Subsequently, the guillotine door was opened and the mouse was allowed to enter into the dark section. […] The time from when the guillotine door was opened to when the mouse entered the dark section was measured. Once the mouse entered the dark section, the guillotine door was closed, and an electric shock of 0.25 mA flows through a grid bottom for 3 seconds, and the mouse remembered this electrical action. The present test was conducted 24 hours after the learning test. […] Here, the longer the time taken, the better the cognitive ability and memory in passive avoidance."}, "[7]": {"experiment": "Solubility (physical and chemical properties)", "assay_type": "physicochemical", "source_text": "As a result of the measurement above, the compound S7-L3-3 was identified to be acanthoside B ((2S,3R,4S,5S,6R)-2-[4-[(3S,3aR,6S,6aR)-3-(4-hydroxy-3,5-dimethoxyphenyl)-1,3,3a,4,6,6a-hexahydrofuro [3,4-c]furan-6-yl]-2,6-dimethoxyphenoxy]-6-(hydroxymethyl)oxane-3,4,5-triol) having a molecular weight of 580, which has not been reported in Salicornia europaea until now, and the physical and chemical properties thereof are as follows."}, "BV2 microglia": {"test_system": "BV2 microglia", "experiment": "Cytotoxicity test through MTT assay in LPS-stimulated BV2 microglia", "details": "acanthoside B 1, 5, 10 μg/mL, alone or together with LPS (FIG. 10a)", "experimental": "as §1"}},
  "data": [
    {"compound": "CN1[C@@H]2C[C@@H](OC(=O)[C@H](CO)c3ccccc3)C[C@H]1[C@@H]1O[C@@H]12", "note": "[scopolamine, reference compound]", "values": [
      {"measurement": "Alternation behavior after administration of scopolamine", "setting": "[1]; normal control group scored 50 points", "result": 45.5, "unit": "points"}
    ]},
    {"compound": "COc1cc([C@H]2OC[C@@H]3[C@@H]2CO[C@H]3c2cc(OC)c(O[C@@H]3O[C@H](CO)[C@@H](O)[C@H](O)[C@H]3O)c(OC)c2)cc(OC)c1O[C@@H]1O[C@H](CO)[C@@H](O)[C@H](O)[C@H]1O", "note": "[Elutheroside E, eleutheroside E, reference compound]", "values": [
      {"measurement": "IC50 (AChE inhibitory activity)", "setting": "[2]", "result": "8.2 ± 0.37", "unit": "mg/L"}
    ]},
    {"compound": "COc1cc([C@H]2OC[C@H]3[C@@H]2CO[C@@H]3c2cc(OC)c(O[C@@H]3O[C@H](CO)[C@@H](O)[C@H](O)[C@H]3O)c(OC)c2)cc(OC)c1O", "note": "[acanthoside B, (2S,3R,4S,5S,6R)-2-[4-[(3S,3aR,6S,6aR)-3-(4-hydroxy-3,5-dimethoxyphenyl)-1,3,3a,4,6,6a-hexahydrofuro [3,4-c]furan-6-yl]-2,6-dimethoxyphenoxy]-6-(hydroxymethyl)oxane-3,4,5-triol]", "values": [
      {"measurement": "IC50", "setting": "[2]; IC50 (AChE inhibitory activity)", "result": 4.82, "unit": "µM"},
      {"measurement": "inhibition at 10 µg/mL", "setting": "[2]; read-out: AChE inhibitory activity", "result": 93.2, "unit": "%"},
      {"measurement": "LPS-induced amplified intracellular nitric oxide (NO)", "setting": "[3]", "result": "remarkably decreased dependently on the treatment concentration"},
      {"measurement": "Expressions of iNOS and COX-2 protein (western blotting)", "setting": "[4]", "result": "remarkably inhibited"},
      {"measurement": "LPS-induced amplified neuroinflammation-related genes (IL-1β, iNOS, COX-2, TNF-α) at high concentration", "setting": "[5]; 10 μg/mL (FIG. 11)", "result": "restored to almost the same level as that of a control group before LPS induction"},
      {"measurement": "mRNA expression pattern of IL-1β, iNOS, COX-2, and TNF-α (RT-PCR)", "setting": "[5]; 1, 5, 10 μg/mL, LPS-stimulated (FIG. 11)", "result": "reduced dose-dependently"},
      {"measurement": "Cognitive ability and memory improvement compared with galantamine (passive avoidance)", "setting": "[6]; administration at high concentrations", "result": "more superior cognitive ability and memory improvement effects compared with the dementia drug, galantamine"},
      {"measurement": "Transfer latency time (TLT: retention time)", "setting": "[6]; scopolamine 1 mg/kg intraperitoneally, different concentrations of sample (FIG. 12a, 12b)", "result": "significantly increased"},
      {"measurement": "Cognitive ability and memory improvement compared with galantamine (Y-maze)", "setting": "[1]; galantamine 10 mg/kg as positive control", "result": "superior cognitive ability and memory improvement effects to galantamine"},
      {"measurement": "Alternation behavior (spatial cognitive ability)", "setting": "[1]; orally administered at different concentrations in 10% Tween 80, scopolamine model (FIG. 13a, 13b)", "result": "restored dose-dependently"},
      {"measurement": "Solubility", "setting": "[7]", "result": "soluble in methanol, ethanol, ethyl acetate, ethyl acetate, chloroform, or pyridine"},
      {"measurement": "Cell viability (MTT)", "setting": "BV2 microglia", "result": "not significantly changed"}
    ]}
  ]
}
